Converted amounts (≈) assume the structure as drawn.
Columns and labels:
NCI-H23 cells [1] = experiment: MTT anti-proliferative assay, NCI-H23; assay type: cell-based, human; settings: mean ± SD of three experiments
Method: (§1) The antiproliferative activity of the synthesised derivatives of the 3-methylbenzofuran series (4a–d, 6a–c, 8a–c and 11) and the 3-(morpholinomethyl)benzofuran series (15a–c, 16a–b, 17a–b and 18) was evaluated against non-small cell lung carcinoma (NSCLC) A549 and NCI-H23 cell lines, following the procedures of the MTT assay. […] 1. Anti-proliferative action toward human […] cell lines […]
(§2) The two examined human non-small cell lung carcinoma cell lines (A549 and NCI-H23) have been obtained from American Type Culture Collection (ATCC). The cells were maintained in Dulbecco's modified Eagle's medium (DMEM) supplemented with 10% heat inactivated fetal calf serum (GIBCO), penicillin (100 U/ml) and streptomycin (100 µg/ml) at 37 °C in humidified atmosphere containing 5% CO2. […]
(§3) flask in 5 ml of culture medium. The anti-proliferative activity of the tested 3-methylbenzofurans (4a-d, 6a-c, 8a-c and 11) and 3-(morpholinomethyl)benzofurans (15a-c, 16a-b, 17a-b and 18) measured in vitro using the MTT assay. Briefly, cells were plated out in 96-well microtiter plate (0.5X10^4 cells/well) and incubated for 24 h before treatment with the tested benzofurans to allow cells to attach to the bottom of the well of the plate. Tested benzofuranswere were dissolved in DMSO at 1 mg/ml immediately before use and diluted to the appropriate volume just before addition to the cell culture. […]
(§4) added to the cells (three wells were prepared for each individual dose). Cells were incubated with […]
(§5) At the end of exposure, MTT […]
(§6) solution in PBS (5 mg/ml) was then added to all well including no cell blank and left to incubate for 90 min. The formation of formazan crystals were visually confirmed using phase contract microscopy. DMSO (100 µl/well) was added to dissolve the formazan crystals with shaking for 10 min after which the absorbance was read at 590 nm against no cell blanks on a microplate reader.
(§7) The relation between percent of surviving fraction and log drug concentration is plotted to get the survival curve for each cell line.

A549 cells = experiment: MTT anti-proliferative assay, A549; assay type: cell-based, human; settings: mean ± SD of three experiments
Method: as §1, §2, §3, §4, §5, §6, §7

WI-38 cell line = experiment: Cytotoxic activity against non-tumorigenic WI-38 cell line; assay type: cell-based, human; settings: for Mean tumour selectivity: S.I. WI-38/A549 and NCI-H23; for IC50: non-tumorigenic human lung WI-38 cell line
Source text: Antiproliferative agents are designed to inhibit the cellular growth of tumour cells selectively, while sparing the normal cells.

NCI-H23 cells [2] = experiment: Cell cycle analysis (PI flow cytometry), NCI-H23; assay type: cell-based, human; settings: NCI-H23, 24 h at IC50 concentration; for S phase, fold vs control: attenuated; for G2/M phase cell population, fold vs control / sub-G1 phase cell population, fold vs control: augmentation; for G0–G1 phase, fold vs control: reduced
Method: (§8) Lung cancer A549 cells were treated with benzofuran 4b, whereas NCI-H23 cells were treated […]
twice with ice-cold phosphate buffered saline (PBS). Subsequently, the treated cells were collected by centrifugation, fixed in ice-cold 70% (v/v) ethanol, washed with PBS, re-suspended with 100 μg/mL RNase, stained with 40 μg/mL PI, and analyzed by flow cytometry using FACS Calibur (Becton Dickinson, BD, Franklin Lakes, NJ, USA). The cell cycle distributions were calculated using CellQuest software 5.1 (Becton Dickinson). […]

NCI-H23 cells [3] = experiment: Annexin V-FITC/PI apoptosis assay, NCI-H23; assay type: cell-based, human; settings: NCI-H23, at IC50 concentration; control 2.09%
Method: The apoptotic effect of the three benzofurans (4b, 15a and 16a) was evaluated using Annexin VFITC/PI (AV/PI) dual staining assay to validate if their observed cytotoxic effect is due to non-specific necrosis or physiological apoptosis. […] Moreover, the apoptotic effects of 3-(morpholinomethyl)benzofuran derivatives 15a and 16a were evaluated in NCI-H23 cancer cell line.
as §8
twice with ice-cold phosphate buffered saline (PBS). Subsequently, the treated cells were collected by centrifugation, fixed in ice-cold 70% (v/v) ethanol, washed with PBS, re-suspended with 100 μg/mL RNase, stained with 40 μg/mL PI, and analyzed by flow cytometry using FACS Calibur (Becton Dickinson, BD, Franklin Lakes, NJ, USA). The cell cycle distributions were calculated using CellQuest software 5.1 (Becton Dickinson).
3. Annexin V-FITC Apoptosis Assay […]
Cells were then rinsed in binding buffer and resuspended in 150 μL of binding buffer with the addition of 1 μL of DAPI (1 μg/μL in PBS). Cells were then analyzed using the flow cytometer BD FACS Canto II and the results were interpreted with FlowJo7.6.4 software (Tree Star, Ashland, 4. VEGFR-2 Kinase Inhibitory Activity […]

[4] = tested on: M. tuberculosis ATCC 27294; experiment: Microplate Alamar Blue Assay, anti-tubercular activity; assay type: cell-based; settings: Mycobacterium tuberculosis, ATCC27294, 168 h, MABA, 7 days, read-out: MIC
VEGFR-2 = VEGFR-2 (Homo sapiens, UniProt P35968); experiment: VEGFR-2 kinase inhibitory assay (VEGFR2(KDR) Kinase Assay Kit)
Sequence of VEGFR-2 (P35968 20-1356): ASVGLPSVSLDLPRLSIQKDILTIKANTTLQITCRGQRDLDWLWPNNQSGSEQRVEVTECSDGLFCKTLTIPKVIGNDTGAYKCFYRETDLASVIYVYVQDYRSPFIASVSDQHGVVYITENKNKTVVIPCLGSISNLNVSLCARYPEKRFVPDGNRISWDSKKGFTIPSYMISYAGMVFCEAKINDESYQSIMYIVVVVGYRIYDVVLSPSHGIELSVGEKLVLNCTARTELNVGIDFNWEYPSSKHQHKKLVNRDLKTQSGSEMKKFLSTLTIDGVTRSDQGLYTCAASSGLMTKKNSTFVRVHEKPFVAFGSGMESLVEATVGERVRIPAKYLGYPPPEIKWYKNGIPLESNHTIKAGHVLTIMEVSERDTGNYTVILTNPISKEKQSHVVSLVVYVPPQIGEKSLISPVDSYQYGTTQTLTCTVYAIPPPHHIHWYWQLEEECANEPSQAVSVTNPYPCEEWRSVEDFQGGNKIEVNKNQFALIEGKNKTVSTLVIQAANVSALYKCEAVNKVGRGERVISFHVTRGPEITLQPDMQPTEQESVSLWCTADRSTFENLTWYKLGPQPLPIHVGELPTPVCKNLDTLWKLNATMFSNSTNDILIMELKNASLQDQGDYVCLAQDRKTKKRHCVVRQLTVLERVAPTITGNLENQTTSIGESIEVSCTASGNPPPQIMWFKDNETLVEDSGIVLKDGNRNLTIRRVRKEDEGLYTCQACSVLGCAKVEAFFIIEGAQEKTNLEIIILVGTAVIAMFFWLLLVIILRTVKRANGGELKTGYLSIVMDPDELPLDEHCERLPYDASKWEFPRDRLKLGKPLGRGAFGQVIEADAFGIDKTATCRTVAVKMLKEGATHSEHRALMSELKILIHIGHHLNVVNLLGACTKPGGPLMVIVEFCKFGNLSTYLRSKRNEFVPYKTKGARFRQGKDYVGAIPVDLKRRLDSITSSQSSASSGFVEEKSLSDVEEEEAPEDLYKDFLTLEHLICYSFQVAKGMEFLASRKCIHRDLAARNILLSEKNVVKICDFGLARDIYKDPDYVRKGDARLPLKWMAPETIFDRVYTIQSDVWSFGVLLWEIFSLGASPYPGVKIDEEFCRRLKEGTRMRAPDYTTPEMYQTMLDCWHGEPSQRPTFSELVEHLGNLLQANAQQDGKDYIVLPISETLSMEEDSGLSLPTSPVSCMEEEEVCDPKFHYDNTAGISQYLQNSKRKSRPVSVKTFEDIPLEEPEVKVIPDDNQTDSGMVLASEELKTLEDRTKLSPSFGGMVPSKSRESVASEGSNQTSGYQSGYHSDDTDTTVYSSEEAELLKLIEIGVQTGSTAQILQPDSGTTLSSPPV
Source text: CA, USA), according to the manufacturer’s instructions.

| IC50 (NCI-H23 cells [1]; Homo sapiens, NCI-H23, 48 h) [µM] | melting point [°C] | IC50 (A549 cells; Homo sapiens, A549, 48 h) [µM] | SMILES | also measured |
| --- | --- | --- | --- | --- |
| 24.36 ± 0.12 | 170 to 172 | – | Cc1c(C(=O)NNC(=S)Nc2cccc(C(F)(F)F)c2)oc2ccccc12 [Compound 4c, 2-(3-Methylbenzofuran-2-carbonyl)-N-(3-(trifluoromethyl)phenyl)hydrazine-1-carbothioamide] | – |
| 34.2 ± 1.71 | 172 to 174 | 10.1 ± 0.55 | COc1cccc(NC(=S)NNC(=O)c2oc3ccccc3c2C)c1 [Compound 4a, N-(3-Methoxyphenyl)-2–(3-methylbenzofuran-2-carbonyl)hydrazine-1-carbothioamide] | – |
| 24.5 ± 1.23 | 240 to 242 | 47 ± 2.57 | Cc1c(C(=O)NNC(=O)Nc2ccc(Cl)c(C(F)(F)F)c2)oc2ccccc12 [Compound 6c, N-(4-Chloro-3-(trifluoromethyl)phenyl)-2-(3-methylbenzofuran-2-carbonyl)hydrazine-1-carboxamide] | – |
| 5.09 ± 0.25 | 242 to 244 | 18.9 ± 1.03 | COc1ccc(NC(=O)NNC(=O)c2oc3ccccc3c2CN2CCOCC2)cc1 [Compound 16b, N-(4-Methoxyphenyl)-2-(3-(morpholinomethyl)benzofuran-2-carbonyl)hydrazine-1-carboxamide] | – |
| 3.04 ± 0.15 | 200 | 10.8 ± 0.59 | COc1ccc(C=NNC(=O)c2oc3ccccc3c2CN2CCOCC2)cc1 [Compound 17b, N'-(4-Methoxybenzylidene)-3-(morpholinomethyl)benzofuran-2-carbohydrazide] | – |
| 6.15 ± 0.31 | 236 to 240 | 9.2 ± 0.5 | COc1ccc(C=NNC(=O)c2oc3ccccc3c2C)cc1 [Compound 8b, N'-(4-Methoxybenzylidene)-3-methylbenzofuran-2-carbohydrazide] | – |
| 2.21 | 210 to 212 | 6.3 ± 0.34 | O=C(NNC(=S)Nc1cccc(C(F)(F)F)c1)c1oc2ccccc2c1CN1CCOCC1 [Compound 15c, 2-(3-(Morpholinomethyl)benzofuran-2-carbonyl)-N-(3-(trifluoromethyl)phenyl)hydrazine-1-carbothioamide] | IC50 (NCI-H23 cells [1]; 48 h): 2.22 ± 0.11 µM |
| 56.7 ± 2.83 | 162 to 164 | 15.1 ± 0.83 | COc1cccc(NC(=O)NNC(=O)c2oc3ccccc3c2C)c1 [Compound 6a, N-(3-Methoxyphenyl)-2-(3-methylbenzofuran-2-carbonyl)hydrazine-1-carboxamide] | – |
| 9.24 ± 0.46 | 236 to 240 | 12.5 ± 0.68 | COc1ccc(NC(=O)NNC(=O)c2oc3ccccc3c2C)cc1 [Compound 6b, N-(4-Methoxyphenyl)-2-(3-methylbenzofuran-2-carbonyl)hydrazine-1-carboxamide] | – |
| 67.2 ± 3.36 | 206 to 210 | 12.8 ± 0.7 | Cc1c(C(=O)NNC(=S)Nc2ccc(F)cc2)oc2ccccc12 [Compound 4d, N-(4-Fluorophenyl)-2-(3-methylbenzofuran-2-carbonyl)hydrazine-1-carbothioamide] | – |
| 23 ± 1.15 | 174 | 6.01 ± 0.03 | O=C(NN=Cc1ccccc1)c1oc2ccccc2c1CN1CCOCC1 [Compound 17a, N'-Benzylidene-3-(morpholinomethyl)benzofuran-2-carbohydrazide] | – |
| – | – | – | NNC(=O)c1ccncc1 [INH, Isoniazid, reference compound] | MIC [4]: 0.24 µg/mL (≈ 1.75 µM) |
| 29.8 ± 1.49 | 200 | 3.7 ± 0.2 | O=C(NN=C1CCCc2ccccc21)c1oc2ccccc2c1CN1CCOCC1 [Compound 18, N'-(3,4-Dihydronaphthalen-1(2H)-ylidene)-3-(morpholinomethyl)benzofuran-2-carbohydrazide] | – |
| 14 ± 0.7 | 160 | 16.4 ± 0.89 | COc1ccc(C(C)=NNC(=O)c2oc3ccccc3c2C)cc1 [Compound 8c, N'-(1-(4-Methoxyphenyl)ethylidene)-3-methylbenzofuran-2-carbohydrazide] | – |
| 14.9 ± 0.74 | 242 to 244 | 44.1 ± 2.41 | COc1cccc(C=NNC(=O)c2oc3ccccc3c2C)c1 [Compound 8a, N'-(3-Methoxybenzylidene)-3-methylbenzofuran-2-carbohydrazide] | – |
| 68.9 ± 3.44 | 198 to 200 | 5.7 ± 0.31 | COc1ccc(NC(=S)NNC(=O)c2oc3ccccc3c2CN2CCOCC2)cc1 [Compound 15b, N-(4-Methoxyphenyl)-2-(3-(morpholinomethyl)benzofuran-2-carbonyl)hydrazine-1-carbothioamide] | – |
| 12.1 ± 0.6 | 180 to 182 | 30.2 ± 1.65 | Cc1c(C(=O)NN=C2CCCc3ccccc32)oc2ccccc12 [Compound 11, N'-(3,4-Dihydronaphthalen-1(2H)-ylidene)-3-methylbenzofuran-2-carbohydrazide] | – |

| SMILES | IC50 (NCI-H23 cells [1]; Homo sapiens, NCI-H23, 48 h) [µM] | melting point [°C] | IC50 (A549 cells; Homo sapiens, A549, 48 h) [µM] | also measured |
| --- | --- | --- | --- | --- |
| COc1cccc(NC(=O)NNC(=O)c2oc3ccccc3c2CN2CCOCC2)c1 [Compound 16a, N-(3-Methoxyphenyl)-2-(3-(morpholinomethyl)benzofuran-2-carbonyl)hydrazine-1-carboxamide] | 0.49 ± 0.02 | – | 1.52 | IC50 (A549 cells; 48 h): 1.5 ± 0.08 µM; Mean tumour selectivity (WI-38 cell line): 12.9; IC50 (WI-38 cell line): 12.9 ± 0.78 µM; S phase, fold vs control (NCI-H23 cells [2]): 0.51 fold; G2/M phase cell population, fold vs control (NCI-H23 cells [2]): 6.90 fold; sub-G1 phase cell population, fold vs control (NCI-H23 cells [2]): 12.54 fold; G0–G1 phase, fold vs control (NCI-H23 cells [2]): 0.47 fold; total apoptosis (NCI-H23 cells [3]): 36.81%; MIC [4]: 125 µg/mL (≈ 294 µM); IC50 (VEGFR-2): 45.4 ± 2.7 nM |
| COc1cccc(NC(=S)NNC(=O)c2oc3ccccc3c2CN2CCOCC2)c1 [Compound 15a, N-(3-Methoxyphenyl)-2-(3-(morpholinomethyl)benzofuran-2-carbonyl)hydrazine-1-carbothioamide] | 2.52 ± 0.13 | 190 to 192 | 5.27 ± 0.29 | IC50 (A549 cells; 48 h): 5.27 ± 0.29 µM; IC50 (NCI-H23 cells [1]; 48 h): 2.52 ± 0.13 µM; Mean tumour selectivity (WI-38 cell line): 8.4; IC50 (WI-38 cell line): 32.8 ± 1.98 µM; S phase, fold vs control (NCI-H23 cells [2]): 0.50 fold; G2/M phase cell population, fold vs control (NCI-H23 cells [2]): 5.33 fold; sub-G1 phase cell population, fold vs control (NCI-H23 cells [2]): 13.13 fold; G0–G1 phase, fold vs control (NCI-H23 cells [2]): 0.56 fold; total apoptosis (NCI-H23 cells [3]): 34.59%; MIC [4]: 62.5 µg/mL (≈ 142 µM); IC50 (VEGFR-2): 132 ± 7.8 nM |

From PMC8128204, “Development of 3-methyl/3-(morpholinomethyl)benzofuran derivatives as novel antitumor agents towards non-small cell lung cancer cells” (Journal of Enzyme Inhibition and Medicinal Chemistry, 2021)
